Measurements: patent US20230192686A1, “1H-PYRROLO[2,3-B]PYRIDINES AND PREPARATION AND USES THEREOF” (BioSplice Therapeutics, Inc., priority 2021, published 2023)

Molecular target: recombinant DYRK1A kinase (Homo sapiens, UniProt Q13627)
Test: DYRK1A kinase assay (Ser/Thr 18 peptide Z-lyte FRET)
Format: biochemical
Details: DYRK1A kinase activity; 15 μM ATP, 4 μM Ser/Thr peptide 18, one hour at room temperature
Procedure: Representative compounds were screened using the assay procedure for DYRK1A kinase activity as described below.
Each compound was dissolved in DMSO as a 10 mM stock and used to prepare compound source plates. Serial dilution (1:3, 11-point dose-response curves from 10 μM to 0.00016 μM) and compound transfer was performed using the ECHO 550 (Labcyte, Sunnyvale, Calif.) into 1536-well black-walled round bottom plates (Corning).
The DYRK1A kinase assay was run using the Ser/Thr 18 peptide Z-lyte assay kit according to manufacturer's instructions (Life Technologies—a Division of Thermo-Fisher). This is a non-radioactive assay using fluorescence resonance energy transfer (FRET) between coumarin and fluorescein to detect kinase activity which is represented as a ratio of coumarin emission/fluorescein emission.
Briefly, recombinant DYRK1A kinase, ATP and Ser/Thr peptide 18 were prepared in 1× Kinase buffer to final concentrations of 0.25 μg/mL, 15 μM, and 4 μM respectively. The mixture was allowed to incubate with the representative compounds for one hour at room temperature. All reactions were performed in duplicate. Unphosphorylated (“0% Control”) and phosphorylated (“100% control”) forms of Ser/Thr 18 served as control reactions. Additionally, an 11-point dose-response curve of Staurosporine (1 uM top) was run to serve as a positive compound control.
After incubation, Development Reagent A was diluted in Development Buffer then added to the reaction and allowed to further incubate for one hour at room temperature. The plate was read at Ex 400 Em 455 to detect the coumarin signal and Ex 400 Em 520 to measure the signal (EnVision Multilabel Plate Reader, PerkinElmer).
The Emission ratio (Em) was calculated as a ratio of the coumarin (C) emission signal (at 445 nm)/Fluorescein (F) emission signal (at 520 nm). The percent phosphorylation was then calculated using the following formula: [1−((Em ratio×F100%)−C100%)/((C0%−C100%)+(Em ratio×(F100%−F0%)))]. Dose-response curves were generated, and inhibitory concentration (IC50) values were calculated using non-linear regression curve fit in the Dotmatics' Studies Software (Bishops Stortford, UK).

| SMILES | EC50 [nM] |
| --- | --- |
| O=C(Nc1cccnc1)c1cnn2ccc(-c3c[nH]c4ncccc34)cc12 [Compound 52, N-(Pyridin-3-yl)-5-(1H-pyrrolo[2,3-b]pyridin-3-yl)pyrazolo[1,5-a]pyridine-3-carboxamide] | 2 |
| O=C(c1cnn2ccc(-c3c[nH]c4ncccc34)cc12)N1CCCCC1 [Compound 53, (5-(1H-Pyrrolo[2,3-b]pyridin-3-yl)pyrazolo[1,5-a]pyridin-3-yl) (piperidin-1-yl)methanone] | 7 |
| O=C(c1cnn2ccc(-c3c[nH]c4ncccc34)cc12)N1CCNC2(CC2)C1 [Compound 57, (5-(1H-Pyrrolo[2,3-b]pyridin-3-yl)pyrazolo[1,5-a]pyridin-3-yl)(4,7-diazaspiro[2.5]octan-7-yl)methanone] | 3 |
| O=C(c1cnn2ccc(-c3c[nH]c4ncccc34)cc12)N1CC2(CNC2)C1 [Compound 61, (5-(1H-Pyrrolo[2,3-b]pyridin-3-yl)pyrazolo[1,5-a]pyridin-3-yl)(2,6-diazaspiro[3.3]heptan-2-yl)methanone] | 4 |
| O=C(c1cnn2ccc(-c3c[nH]c4ncccc34)cc12)N1CC2CNCC2C1 (stereo not shown) [Compound 63, (5-(1H-Pyrrolo[2,3-b]pyridin-3-yl)pyrazolo[1,5-a]pyridin-3-yl) (hexahydropyrrolo[3,4-c]pyrrol-2(1H)-yl)methanone] | 5 |
| CN1CC2CN(C(=O)c3cnn4ccc(-c5c[nH]c6ncccc56)cc34)CC2C1 (stereo not shown) [Compound 64, (5-(1H-Pyrrolo[2,3-b]pyridin-3-yl)pyrazolo[1,5-a]pyridin-3-yl)(5-methylhexahydropyrrolo[3,4-c]pyrrol-2(1H)-yl)methanone] | 6 |
| O=C1NC2(CCCCC2)c2cc(-c3c[nH]c4ncccc34)ccc21 [Compound 78, 6′-(1H-Pyrrolo[2,3-b]pyridin-3-yl)spiro[cyclohexane-1,1′-isoindolin]-3′-one] | 6 |
| CC1(C)CC(=O)c2ccc(-c3c[nH]c4ncccc34)cc2O1 [Compound 80, 2,2-Dimethyl-7-(1H-pyrrolo[2,3-b]pyridin-3-yl)chroman-4-one] | 31 |
| CC1(C)CNC(=O)c2ccc(-c3c[nH]c4ncccc34)cc21 [Compound 82, 4,4-Dimethyl-6-(1H-pyrrolo[2,3-b]pyridin-3-yl)-3,4-dihydroisoquinolin-1(2H)-one] | 6 |
| O=C1CC2(CCNCC2)Oc2cc(-c3c[nH]c4ncccc34)ccc21 [Compound 83, 7-(1H-Pyrrolo[2,3-b]pyridin-3-yl)spiro[chromane-2,4′-piperidin]-4-one] | 29 |
| O=C1NCCOc2cc(-c3c[nH]c4ncccc34)ccc21 [Compound 84, 8-(1H-Pyrrolo[2,3-b]pyridin-3-yl)-3,4-dihydrobenzo[f][1,4]oxazepin-5(2H)-one] | 3 |
| O=C1NCCOc2c1ccc(-c1c[nH]c3ncccc13)c2F [Compound 86, 9-Fluoro-8-(1H-pyrrolo[2,3-b]pyridin-3-yl)-3,4-dihydrobenzo[f] [1,4]oxazepin-5(2H)-one] | 7 |
| c1cnc2ccc(-c3c[nH]c4ncccc34)cc2c1 [Compound 87, 6-(1H-Pyrrolo[2,3-b]pyridin-3-yl)quinoline] | 2 |
| O=C(c1ccnc2ccc(-c3c[nH]c4ncccc34)cc12)N1CCNC2(CC2)C1 [Compound 88, (6-(1H-Pyrrolo[2,3-b]pyridin-3-yl)quinolin-4-yl)(4,7-diazaspiro[2.5]octan-7-yl)methanone] | 3 |
| c1cnc2[nH]cc(-c3ccc4nccnc4c3)c2c1 [Compound 90, 6-(1H-Pyrrolo[2,3-b]pyridin-3-yl)quinoxaline] | 3 |
| c1cnc2[nH]cc(-c3ccc4ncnc(N5CCNC6(CC6)C5)c4c3)c2c1 [Compound 96, 6-(1H-Pyrrolo[2,3-b]pyridin-3-yl)-4-(4,7-diazaspiro[2.5]octan-7-yl) quinazoline] | 1 |
| c1cnc2[nH]cc(-c3ccc4ncnc(N5CCNC6(CCC6)C5)c4c3)c2c1 [Compound 97, 6-(1H-Pyrrolo[2,3-b]pyridin-3-yl)-4-(5,8-diazaspiro[3.5]nonan-8-yl) quinazoline] | 2 |
| c1cnc2[nH]cc(-c3ccc4ncnc(N5CCNC6(CCCC6)C5)c4c3)c2c1 [Compound 98, 9-(6-(1H-Pyrrolo[2,3-b]pyridin-3-yl)quinazolin-4-yl)-6,9-diazaspiro [4.5]decane] | 2 |

Results, then the compound that gave them:

| EC50 [nM] | SMILES |
| --- | --- |
| 1 | O=C(NC1CCN(Cc2ccccn2)CC1)c1cnn2ccc(-c3c[nH]c4ncccc34)cc12 [Compound 51, N-(1-(Pyridin-2-ylmethyl)piperidin-4-yl)-5-(1H-pyrrolo[2,3-b]pyridin-3-yl)pyrazolo[1,5-a]pyridine-3-carboxamide] |
| 18 | CN1CCN(C2CCN(C(=O)c3cnn4ccc(-c5c[nH]c6ncccc56)cc34)CC2)CC1 [Compound 54, (5-(1H-Pyrrolo[2,3-b]pyridin-3-yl)pyrazolo[1,5-a]pyridin-3-yl)(4-(4-methylpiperazin-1-yl)piperidin-1-yl)methanone] |
| 4 | CN1CCN(C(=O)c2cnn3ccc(-c4c[nH]c5ncccc45)cc23)CC1 [Compound 55, (5-(1H-Pyrrolo[2,3-b]pyridin-3-yl)pyrazolo[1,5-a]pyridin-3-yl)(4-methylpiperazin-1-yl)methanone] |
| 7 | O=C(c1cnn2ccc(-c3c[nH]c4ncccc34)cc12)N1CCN(C2CC2)CC1 [Compound 56, (5-(1H-Pyrrolo[2,3-b]pyridin-3-yl)pyrazolo[1,5-a]pyridin-3-yl)(4-cyclopropylpiperazin-1-yl)methanone] |
| 12 | CN1C2CCC1CN(C(=O)c1cnn3ccc(-c4c[nH]c5ncccc45)cc13)C2 [Compound 58, (5-(1H-Pyrrolo[2,3-b]pyridin-3-yl)pyrazolo[1,5-a]pyridin-3-yl)(8-methyl-3,8-diazabicyclo[3.2.1]octan-3-yl)methanone] |
| 81 | CN1CC2CCC(C1)N2C(=O)c1cnn2ccc(-c3c[nH]c4ncccc34)cc12 [Compound 59, (5-(1H-Pyrrolo[2,3-b]pyridin-3-yl)pyrazolo[1,5-a]pyridin-3-yl)(3-methyl-3,8-diazabicyclo[3.2.1]octan-8-yl)methanone] |
| 6 | O=C(c1cnn2ccc(-c3c[nH]c4ncccc34)cc12)N1CCOCC1 [Compound 60, (5-(1H-Pyrrolo[2,3-b]pyridin-3-yl)pyrazolo[1,5-a]pyridin-3-yl) (morpholino)methanone] |
| 5 | CN1CC2(C1)CN(C(=O)c1cnn3ccc(-c4c[nH]c5ncccc45)cc13)C2 [Compound 62, (5-(1H-Pyrrolo[2,3-b]pyridin-3-yl)pyrazolo[1,5-a]pyridin-3-yl)(6-methyl-2,6-diazaspiro[3.3]heptan-2-yl)methanone] |
| 7 | c1cnc2[nH]cc(-c3ccn4nccc4n3)c2c1 [Compound 65, 5-(1H-Pyrrolo[2,3-b]pyridin-3-yl)pyrazolo[1,5-a]pyrimidine] |
| 19 | COc1ccc(-c2c[nH]c3ncccc23)cn1 [Compound 67, 3-(6-Methoxypyridin-3-yl)-1H-pyrrolo[2,3-b]pyridine] |
| 73 | COc1ccc(-c2c[nH]c3ncccc23)nn1 [Compound 69, 3-(6-Methoxypyridazin-3-yl)-1H-pyrrolo[2,3-b]pyridine] |
| 13 | CN1CCC(Nc2cncc(-c3c[nH]c4ncccc34)n2)CC1 [Compound 70, N-(1-Methylpiperidin-4-yl)-6-(1H-pyrrolo[2,3-b]pyridin-3-yl)pyrazin-2-amine] |
| 91 | CC1(C)COc2ccc(-c3c[nH]c4ncccc34)cc21 [Compound 72, 3-(3,3-Dimethyl-2,3-dihydrobenzofuran-5-yl)-1H-pyrrolo[2,3-b] pyridine] |
| 31 | CN1Cc2cc(-c3c[nH]c4ncccc34)ccc2C1=O [Compound 76, 2-Methyl-5-(1H-pyrrolo[2,3-b]pyridin-3-yl)isoindolin-1-one] |
| 24 | c1cnc2[nH]cc(-c3ccc4c(c3)CCCO4)c2c1 [Compound 79, 3-(Chroman-6-yl)-1H-pyrrolo[2,3-b]pyridine] |
| 25 | CN1CCOc2cc(-c3c[nH]c4ncccc34)ccc2C1=O [Compound 85, 4-Methyl-8-(1H-pyrrolo[2,3-b]pyridin-3-yl)-3,4-dihydrobenzo[f] [1,4]oxazepin-5(2H)-one] |
| 1 | CN1CCC(NC(=O)c2ccnc3ccc(-c4c[nH]c5ncccc45)cc23)CC1 [Compound 89, N-(1-Methylpiperidin-4-yl)-6-(1H-pyrrolo[2,3-b]pyridin-3-yl) quinoline-4-carboxamide] |
| 3 | CN1CCC(Oc2cnc3ccc(-c4c[nH]c5ncccc45)cc3n2)CC1 [Compound 91, 2-((1-Methylpiperidin-4-yl)oxy)-7-(1H-pyrrolo[2,3-b]pyridin-3-yl) quinoxaline] |
| 2 | CN1CCN(c2ncnc3ccc(-c4c[nH]c5ncccc45)cc23)CC1 [Compound 95, 4-(4-Methylpiperazin-1-yl)-6-(1H-pyrrolo[2,3-b]pyridin-3-yl) quinazoline] |
